Like-named read-outs stand apart in the source and are kept apart here.
Tests used:
CRC2001 = assay: Viability of primary patient-derived colorectal cancer cell line; format: cell-based
CRC1671 = assay: as above; format: cell-based
[1] = system: Wnt signalling (TOPFlash reporter, STF3A cells); assay: Wnt STF3A TOPFlash reporter dose response (constitutive Wnt3A); format: cell-based
Method: Wnt STF reporter cells (HEK 293 cells stably transfected with TOPFlash reporter) and STF3A reporter cells (STF cells with constitutive secretion of Wnt3A) were kind gifts from David Virshup (Duke-NUS Graduate Medical School, Singapore). HCT116, DLD-1, and SW480 cell lines were obtained from ATCC. The Hippo pathway TEAD reporter (cat. #60618) and Myc signalling pathway reporter (cat. #60520) cells lines were purchased from BPS Bioscience, Inc.
The Wnt STF3A reporter cells were seeded as 20,000 cells in 100 μL culture medium per well in 96-well plates (Corning cat. #3903, Falcon cat. #353072). The next day, 5-fold dilutions of the compounds in DMSO were added to the cells at a final concentration of 1% DMSO. After 24 hr incubation, the viability of the cells was determined with cell counting kit-8 (CCK-8, Dojindo cat. #CK04) cell viability reagent according to the manufacturer's protocol while the TOPFlash reporter activity was determined with Steady-Glo luciferase reagent.
The average signal from DMSO treated wells was calculated for each plate, and the signal from each treatment well was normalized against the average DMSO signal from the respective plate. The normalized values were plotted against the concentrations tested using GraphPad Prism 5, and the EC50 values were determined through either three- or four-parameter nonlinear regression.

HCT116 xenografts = assay: Mouse xenograft and compound treatment; format: in vivo; conditions: NSG mice, 50 mg/kg every other day i.p.
Method: HCT 116 cells (1×10^6 cells per site) and were implanted subcutaneously into the right flanks of 5-7 weeks old NSG (NOD scid gamma) (Jackson Laboratory, stock no. 005557) mice. When tumours reached a size of 60-100 mm^3 in volume, the animals were randomised to either the treatment or control group. Mice in the treatment group were administered with compound GB1874 at 50 mg/kg every other day via intraperitoneal injection. Simultaneously animals in the control group were administered with the diluent in the absence of compound. Compound GB1874 was prepared by dissolving it in DMSO to a concentration of 60 mg/mL and diluting it in 5% PEG 300, 5% Tween-80 in saline to a final concentration of 3 mg/mL, 5% DMSO. The length and width of tumours were measured by caliper once every 2 days. Tumour volumes were estimated using the following modified ellipsoidal formula: Tumour volume=½(length×width^2). Mice were euthanized when tumours in the control group reaches 2000 mm^3.

HCT116 cells = assay: Spheroid formation assay; format: cell-based; conditions: HCT116, 30 μM
Method: HCT116, DLD-1, and SW480 cells were seeded as 150 cells in 200 μL spheroid medium per well in 96-well ultra-low attachment plates (Corning cat. #3474). The compounds were added on the day of cell seeding at a final concentration of 30 μM, 0.5% DMSO. The cells were grown at 37° C., 5% CO2 and images of the spheroids formed were taken on days 7 and 10 after cell seeding using the Operetta CLS system (Perkin Elmer).

β-cat-TCF4 interaction = target: T1, β-cat-TCF4 interaction (Homo sapiens, UniProt P35222, DEL45-45); assay: Co-immunoprecipitation of β-cat and TCF4 in HCT116 cells; format: cell-based; conditions: 18 hr
T1 construct: endogenous in cells; host or cells: HCT116
Method: HCT116 cells were treated for 18 hr with compounds at the indicated concentrations. Cells were lysed on ice in lysis buffer containing 20 mM HEPES, pH 7.5, 137 mM NaCl, 1.5 mM MgCl2, 1 mM EGTA, 1 mM dithiothreitol (DTT), 1% Triton X-100, 10% glycerol, cOmplete protease inhibitor cocktail (Roche cat. #11697498001), and 1 mM Na3VO4. Each sample of cleared protein lysate was incubated overnight at 4° C. with 4 μg anti-β-cat antibody (Sigma cat. #C7207) followed by 1 hr incubation with a 50 μL slurry of Dynabeads Protein G (Invitrogen cat. #10004D) at 4° C. The beads were then washed three times with lysis buffer at 4° C., and the bound protein was eluted by heating the beads with 30 μL (per sample) of SDS sample buffer at 95° C. for 7 min. protein was resolved by SDS-PAGE and blotted onto PVDF membrane (Millipore cat. #IPVH00010). Primary antibodies were incubated overnight at 4° C. and the blots were detected with either IRDye 800CW goat anti-rabbit antibody (LI-COR cat. #926-32211) or IRDye 680RD goat anti-mouse antibody (LI-COR cat. #926-68070) at 1:5000 dilution. Signals were visualized with the LI-COR Odyssey CLx imaging system and bands were quantified using LI-COR Image Studio data analysis software. […]

CRC2440 = assay: Viability of primary patient-derived colorectal cancer cell line; format: cell-based
[2] = system: Wnt target proteins in HCT116 cells; assay: Western blotting of Wnt target and Wnt pathway proteins in HCT116 cells; format: cell-based; conditions: 50 μM, 18 hr
Method: HCT116 cells were treated with compounds for 18 hr at a final concentration of 50 μM, 1% DMSO. Cells were lysed on ice in RIPA buffer (Thermo cat. #89900) containing cOmplete™ protease inhibitor cocktail (Roche cat. #11697498001) and PhosSTOP phosphatase inhibitor cocktail (Roche cat. #04906837001). 30 μg per sample of total cellular protein was resolved by SDS-PAGE and blotted onto PVDF membrane (Millipore cat. #IPVH00010). Primary antibodies were incubated overnight at 4° C. and the blots were detected with either IRDye 800CW goat anti-rabbit antibody (LI-COR cat. #926-32211) or IRDye 680RD goat anti-mouse antibody (LI-COR cat. #926-68070) at 1:5000 dilution. Signals were visualized with the LI-COR Odyssey CLx imaging system and bands were quantified using LI-COR Image Studio data analysis software. The primary antibodies used were Met (Cell Signalling Technology cat. #8198, 1:1000), cyclin D1 (Cell Signalling Technology cat. #2978, 1:1000), survivin (Santa Cruz cat. #sc-10811, 1:500), ECAD (Cell Signalling Technology cat. #3195, 1:1000), TCF4/TCF7L2 (Cell Signalling Technology cat. #2569, 1:1000), β-cat (Cell Signalling Technology cat. #8480, 1:1000), β-actin (Abcam cat. #ab8226, 1:3000).

CRC1414 = assay: Viability of primary patient-derived colorectal cancer cell line; format: cell-based

T1 sequence (P35222 with tags, fused parts or gaps DEL45-45): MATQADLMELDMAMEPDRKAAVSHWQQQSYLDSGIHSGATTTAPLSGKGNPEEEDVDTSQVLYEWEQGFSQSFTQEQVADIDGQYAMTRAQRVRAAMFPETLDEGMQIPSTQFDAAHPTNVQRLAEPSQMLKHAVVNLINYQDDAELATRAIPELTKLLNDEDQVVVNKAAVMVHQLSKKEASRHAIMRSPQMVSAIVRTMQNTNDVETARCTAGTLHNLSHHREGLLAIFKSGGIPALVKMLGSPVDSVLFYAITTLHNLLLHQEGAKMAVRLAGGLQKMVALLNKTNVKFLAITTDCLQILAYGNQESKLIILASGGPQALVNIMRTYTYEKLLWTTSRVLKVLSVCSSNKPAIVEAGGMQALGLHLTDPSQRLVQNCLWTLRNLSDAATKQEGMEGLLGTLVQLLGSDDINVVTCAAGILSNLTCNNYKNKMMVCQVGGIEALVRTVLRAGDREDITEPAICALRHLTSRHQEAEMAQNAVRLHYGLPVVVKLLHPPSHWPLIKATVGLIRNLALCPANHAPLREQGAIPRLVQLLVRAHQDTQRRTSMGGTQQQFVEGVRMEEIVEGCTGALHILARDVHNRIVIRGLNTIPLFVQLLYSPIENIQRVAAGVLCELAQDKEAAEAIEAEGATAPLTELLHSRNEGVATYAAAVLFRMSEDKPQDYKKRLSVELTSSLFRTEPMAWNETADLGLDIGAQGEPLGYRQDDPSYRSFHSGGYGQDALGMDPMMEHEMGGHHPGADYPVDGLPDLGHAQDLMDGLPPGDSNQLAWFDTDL

CCc1ccc(OCc2nnc(SC3CCCC3=O)n2C(C)c2ccccc2)cc1 (stereo not shown) [GB1874]
EC50 (CRC2001): 25 µM
EC50 (CRC1671): 30 µM
IC50 ([1]; Table 1, STF3A reporter cells, 24 hr, read-out: IC50 Wnt (STF3A)): 26 µM
IC50 ([1]; Table 3, STF3A reporter cell line, read-out: STF3A Inhibition IC50): 27 µM
expression of cyclin D1 and Ki67 in xenograft tumours (IHC) (HCT116 xenografts): reduction in the expression of Wnt target gene, cyclin D1, as well as the proliferation marker, Ki67
systemic toxicity in the mice (body weight) (HCT116 xenografts; 2 weeks): minimal systemic toxicity
growth of HCT116 xenografts (tumour volume) (HCT116 xenografts; 2 weeks, 50 mg/kg): effectively inhibited the growth of HCT116 xenografts in vivo
spheroid formation (HCT116 cells): markedly reduce survival of the cancer stem-like cells
β-cat-TCF4 interaction (co-IP) (β-cat-TCF4 interaction): reduce the β-cat-TCF4 interaction to the same extent as iCRT3
EC50 (CRC2440): 16 µM
expression of Wnt target genes c-Met, cyclin D1 and survivin (Western blotting) [2]: most effective at reducing the expression of these proteins
expression of β-cat, ECAD and TCF4 (Western blotting) [2]: minimal effect on the expression of β-cat itself, or the expression of its partner proteins, such as ECAD and TCF4
EC50 (CRC1414): 42 µM

— patent US12661338B2, “Heterocyclic compounds as modulators of beta-catenin / TCF4 interaction” (AGENCY FOR SCIENCE, TECHNOLOGY AND RESEARCH, priority 2019, dated 2026)
